This note sets out measurements from US10761088B2, “Method for identifying histone tail proteolysis” (University of Southern California, priority 2016, dated 2020).

The subject of series [1] is H3NT proteolysis in OCP-induced cells. Description: H3NT cleavage in OCP-induced cells (Western blot of chromatin with H3CT antibody). It is filed as cell-based. Particulars: RANKL-induced primary mouse OCP cells; shRNA transduction or 10 nM MMP-9-INI or 1.6 μM C646 for 3 days prior to differentiation; versus control shRNA or DMSO. On the technique in general: In western blotting, separated proteins are transferred to a membrane and probed.

Series [2] deals with T1, H3NT protease activity (MMP-9) of purified fractions #3-5 from 3-day OCP-induced cells (Mus musculus, UniProt P41245).
T1 construct: both the pro- and active-forms of MMP-9 were detected in the nuclear compartment of 1-day OCP-induced cells; endogenous in cells; host or cells: primary mouse (C57BL/6) bone-marrow-derived OCP cells induced with RANKL; nuclear extracts / lysates
T1 sequence (P41245 108-730): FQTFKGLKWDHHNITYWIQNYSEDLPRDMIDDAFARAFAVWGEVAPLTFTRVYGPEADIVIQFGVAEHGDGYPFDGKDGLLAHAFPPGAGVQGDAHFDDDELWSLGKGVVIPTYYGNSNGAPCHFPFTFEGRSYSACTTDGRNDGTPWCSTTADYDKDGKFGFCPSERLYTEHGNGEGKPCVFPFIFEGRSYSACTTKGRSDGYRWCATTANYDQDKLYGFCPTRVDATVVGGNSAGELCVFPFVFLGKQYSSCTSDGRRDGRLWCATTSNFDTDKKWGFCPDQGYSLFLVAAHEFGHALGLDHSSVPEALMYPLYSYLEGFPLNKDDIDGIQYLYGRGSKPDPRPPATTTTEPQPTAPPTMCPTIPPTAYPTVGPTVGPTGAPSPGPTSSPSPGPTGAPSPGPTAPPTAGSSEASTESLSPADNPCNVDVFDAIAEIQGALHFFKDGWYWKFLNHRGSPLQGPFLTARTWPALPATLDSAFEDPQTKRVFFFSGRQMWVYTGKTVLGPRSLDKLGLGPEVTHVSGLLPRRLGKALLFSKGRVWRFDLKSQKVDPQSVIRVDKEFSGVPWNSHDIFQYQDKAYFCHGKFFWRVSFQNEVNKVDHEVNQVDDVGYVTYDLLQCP
Description: In vitro H3NT cleavage assay of purified nuclear fractions #3-5 with protease inhibitors (rH3 substrate, Western blot with H3CT antibody). It is filed as biochemical. Particulars: fractions incubated with protease inhibitors, Western blot with H3CT antibody (FIG. 1D, 1E). The source says: (§1) To identify the protease responsible for H3NT cleavage observed in preosteoclasts, nuclear extracts from 3-day OCP-induced cells were fractionated by a series of chromatography steps (FIG. 1C). An in vitro H3NT cleavage assay was developed using a recombinant H3 (rH3) substrate and Western blot analysis with the H3CT antibody to track and isolate nuclear fractions containing H3NT protease activity. […] These fractions were combined and fractionated on a Q-sepharose column where, again, H3NT protease activity was largely restricted to two sequential fractions, BR100 and BR200. The fractions were combined for glycerol gradient sedimentation resulting in the final purification of fractions (#3-5) containing H3NT protease activity. […]
(§2) His-tagged proteins were generated in Rosetta 2 (DE3) pLysS E. coli (Novagen) and purified as previously described (Kim et al. 2008). […] Peptides were incubated with rMMP-9 at seven different concentrations (0, 25, 50, 100, 150, 200, and 250 µM) in cleavage buffer, the reactions stopped by adding 20 mM o-phenanthroline (Sigma) and peptide hydrolysis was measured by adding 5 mM fluorescamine followed by detection at λex 365 nm and λem 450 nm using a Plate Chameleon spectrofluorometer (Hidex). Kinetic parameters were determined by Michaelis-Menten analysis. […]

Series [3] has as its system Nfatc1, Lif and Xpr1 expression. The series is described as follows: RT-qPCR of osteoclastogenic genes Nfatc1, Lif and Xpr1 in 3-day OCP cells. It is filed as cell-based, mouse. The note with it: 3-day OCP-induced cells, with RANKL (FIG. 7B, 14). The source says: FIGS. 7A-7D. […] Distribution of H3NT-cleaved genes dependent on MMP-9 for activation (light) or repression (black) in 3-day OCP-induced cells (right). […] Enrichments were plotted relative to non-induced control shRNA OCP cells (first column) (y-axis). Star indicates H3NT cleavage.
FIG. 14. […] RT-qPCR was used to quantitatively measure fold expression changes (y-axis) of the osteoclastogenic genes Nfatc1, Lif and Xpr1 relative to non-induced control after normalization to β-actin expression.
To broadly examine the association between H3NT cleavage and gene expression, the RNA-Seq data was analyzed for the 1,233 H3NT-cleaved genes identified in control and MMP-9 depleted 3-day OCP-induced cells. […] To further investigate the MMP-9-dependent activation of these genes during osteoclastogenesis, RT-qPCR was performed in OCP cells transduced with a control or MMP-9-specific shRNA, or treated with DMSO control or a selective MMP-9 inhibitor, and cultured with or without RANKL for 3 days. […]
qPCR was performed using PerfeCta® SYBR Green FastMix (Quanta BIOSCIENCES) and an iCycler IQ5 (Bio-Rad). […] Specificity of amplification was determined by melting curve analysis and all samples were run in triplicate with results averaged.
On the technique in general: In qPCR the cycle at which signal appears reflects the starting amount.

The test system of series [4] is recombinant H3 (rH3). Description: In vitro H3NT cleavage assay using recombinant proteases. It is filed as biochemical. Particulars: recombinant MMP-9, USP14, USP39 and DIM1 tested (FIG. 1G).
Text: as §1, §2

Entries after “also recorded” stand apart in the source; their conditions may differ.

For `CC1=NN(c2ccc(C(=O)O)cc2)C(=O)/C1=C\c1ccc(-c2cc(C)c(C)cc2[N+](=O)[O-])o1` [selective CBP/p300 inhibitor, C646], the “H3NT proteolysis / cleavage in OCP-induced cells” value in series [1] is recorded as “sustained impairment of H3NT proteolysis”.
Turning to `CCN(CC)Cc1cc(C)c(N(Cc2ccccc2)S(=O)(=O)c2ccc(OC)cc2)c(C(=O)NO)c1` [selective MMP-9 inhibitor], in series [1], the “H3NT proteolysis / cleavage in OCP-induced cells” value is “continuous impairment of H3NT cleavage; also recorded: Ablation of H3NT cleavage”. Also, in series [2], the “H3NT protease activity of purified fractions #3-5” value is “abolished H3NT proteolysis”. Also, the “Nfatc1, Lif and Xpr1 activation (fold expression, normalized to β-actin)” value in series [3] is “significantly impaired Nfatc1, Lif and Xpr1 activation”.
For the compound “rMMP-9: His-tagged recombinant MMP-9 (aa1115-730 as printed) purified from E. coli inclusion bodies and refolded”, the “H3NT protease activity of recombinant proteases” value in series [4] is on record as “possessed H3NT protease activity”.
